Source: DBAASP
In brackets after ≈: the same amount, converted by molar mass. Several values for one entry are separate records, joined by “and”; a condition that tells them apart may be missing. Equal entries are not always repeated. One block for each molecule: values may come before it.

Experiments:
Assay in all cases: ≥ marks a high value that may be exact or a test limit, other limits are often not marked, values filed in µg/mL are converted to µM
Candida tropicalis = system: Candida tropicalis
[1] = system: Pseudomonas syringae pv. tabaci
Mammaliicoccus lentus = system: Mammaliicoccus lentus
Escherichia coli D21 = system: Escherichia coli D21
[2] = system: Phytophthora nicotianae PG344
[3] = system: Yersinia pseudotuberculosis YPIII
[4] = system: Candida albicans ATCC 10231
Micrococcus luteus = system: Micrococcus luteus
Bacillus megaterium Bm11 = system: Bacillus megaterium Bm11
[5] = system: Staphylococcus aureus LT1338
[6] = system: Staphylococcus aureus LT1334
Escherichia coli ML-35 = system: Escherichia coli ML-35
Citrobacter freundii = system: Citrobacter freundii
[7] = system: Pseudomonas aeruginosa ATCC 27853
[8] = system: Staphylococcus aureus 710A
Pseudomonas aeruginosa = system: Pseudomonas aeruginosa
[9] = system: Salmonella enterica subsp. enterica serovar Typhimurium ATCC 14028
Enterococcus faecium = system: Enterococcus faecium
Klebsiella pneumoniae = system: Klebsiella pneumoniae
[10] = system: Staphylococcus epidermidis LT1324
[11] = system: Stenotrophomonas maltophilia
Escherichia coli = system: Escherichia coli
Candida albicans = system: Candida albicans
[12] = system: Staphylococcus haemolyticus
Staphylococcus aureus = system: Staphylococcus aureus
[13] = system: Escherichia coli CCT 1371
[14] = system: Klebsiella oxytoca CIP 79.32
Escherichia coli BL21 = system: Escherichia coli BL21
[15] = system: Staphylococcus epidermidis ATCC 12228
[16] = system: Pseudomonas aeruginosa CCARM 2095
[17] = system: Pseudomonas aeruginosa ATCC BAA-427
[18] = system: Bacillus megaterium ATCC 10778
[19] = system: Acinetobacter baumannii ATCC 19606
[20] = system: Staphylococcus aureus ATCC 25293
Escherichia coli AIG 222 = system: Escherichia coli AIG 222
Micrococcus luteus A270 = system: Micrococcus luteus A270
[21] = system: Pseudomonas aeruginosa KCTC 1637
[22] = system: Staphylococcus aureus CCARM 3001
[23] = system: Escherichia coli ATCC 11775
[24] = system: Staphylococcus aureus KCTC 1621
[25] = system: Bacillus subtilis CCT 2471
Candida albicans MDM8 = system: Candida albicans MDM8
[26] = system: Pseudomonas aeruginosa PAO1
[27] = system: Pseudomonas aeruginosa ATCC 15442
[28] = system: Staphylococcus aureus ATCC 12600
[29] = system: Staphylococcus saprophyticus
[30] = system: Staphylococcus aureus CCARM 3543
Bacillus thuringiensis = system: Bacillus thuringiensis
[31] = system: Staphylococcus aureus ATCC 25923
[32] = system: Escherichia coli KCTC 1682
[33] = system: Pseudomonas aeruginosa NCIB 10421
[34] = system: Staphylococcus epidermidis KCTC 1917
[35] = system: Escherichia coli ATCC 10536
[36] = system: Candida tropicalis IOC 4560
[37] = system: Klebsiella aerogenes ATCC 13048
Escherichia coli SBS 363 = system: Escherichia coli SBS 363
[38] = system: Candida albicans ATCC 18804
[39] = system: Serratia marcescens ATCC 4112
[40] = system: Staphylococcus aureus ATCC 6538
[41] = system: Salmonella typhimurium KCTC 1926
Escherichia coli AIG 221 = system: Escherichia coli AIG 221
Proteus mirabilis = system: Proteus mirabilis
[42] = system: Bacillus cereus ATCC 11778
[43] = system: Klebsiella pneumoniae ATCC 13883

MIC (Candida tropicalis): 14 µM (≈ 26.5 µg/mL)
MIC [1]: 16 µM (≈ 30.2 µg/mL)
MIC (Mammaliicoccus lentus): 10 µM (≈ 18.9 µg/mL)
MIC (Escherichia coli D21): 30 µM (≈ 56.7 µg/mL)
MIC [2]: 16 µM (≈ 30.2 µg/mL)
MIC [3]: 5 µM (≈ 9.45 µg/mL)
MIC [4]: 22 µM (≈ 41.6 µg/mL)
MIC (Micrococcus luteus): 8 µM (≈ 15.1 µg/mL)
MIC (Bacillus megaterium Bm11): 3 µM (≈ 5.67 µg/mL)
Structure (SMILES): CC(C)C[C@H](NC(=O)[C@H](C)NC(=O)CN)C(=O)N[C@@H](CCCN=C(N)N)C(=O)NCC(=O)N[C@H]1CSSC[C@@H](C(=O)N[C@@H](CCCCN)C(N)=O)NC(=O)[C@@H]2CCCN2C(=O)[C@H](CCCCN)NC(=O)[C@@H]2CCCN2C(=O)[C@@H]2CCCN2C(=O)[C@H](Cc2ccc(O)cc2)NC(=O)[C@H](CO)NC(=O)[C@H](CCCCN)NC(=O)[C@H]([C@@H](C)O)NC(=O)[C@H](Cc2c[nH]c3ccccc23)NC1=O [GALRGCWTKSYPPKPCK]

MIC [5]: 4 µM (≈ 8.89 µg/mL)
MIC [6]: 3 µM (≈ 6.67 µg/mL)
MIC (Escherichia coli ML-35): 1 µM (≈ 2.22 µg/mL)
MIC (Citrobacter freundii): 2 µM (≈ 4.44 µg/mL)
MIC [7]: 4 µM (≈ 8.89 µg/mL)
MIC [8]: 5.66 µM (≈ 12.6 µg/mL)
MIC (Pseudomonas aeruginosa): 2 µM (≈ 4.44 µg/mL)
MIC [9]: 5.66 µM (≈ 12.6 µg/mL)
MIC (Enterococcus faecium): 1.41 µM (≈ 3.14 µg/mL)
MIC (Klebsiella pneumoniae): 1 µM (≈ 2.22 µg/mL)
MIC [10]: 1.5 µM (≈ 3.33 µg/mL)
MIC [11]: 1.22 µM (≈ 2.72 µg/mL)
MIC (Escherichia coli): 1.41 µM (≈ 3.14 µg/mL)
MIC (Candida albicans): > 4 µM
MIC (Staphylococcus aureus): 2 µM and 2.45 µM
MIC (Micrococcus luteus): 1 µM (≈ 2.22 µg/mL)
MIC (Bacillus megaterium Bm11): 2 µM (≈ 4.44 µg/mL)
Structure (SMILES): CC[C@H](C)[C@H](NC(=O)[C@@H](NC(=O)[C@H](CCCN=C(N)N)NC(=O)[C@H](C)NC(=O)[C@H](CC(C)C)NC(=O)[C@H](CCCCN)NC(=O)[C@H](CCCN=C(N)N)NC(=O)[C@H](C)NC(=O)[C@H](CC(C)C)NC(=O)[C@H](CCCN=C(N)N)NC(=O)CNC(=O)[C@H](Cc1ccccc1)NC(=O)[C@H](CCCCN)NC(=O)[C@H](CO)NC(=O)[C@H](CC(C)C)NC(=O)[C@H](CC(C)C)NC(=O)CN)C(C)C)C(=O)N1CCC[C@H]1C(=O)N[C@@H](CCCCN)C(=O)N[C@H](C(N)=O)C(C)C [GLLSKFGRLARKLARVIPKV]
MIC [12]: 1.5 µM (≈ 3.33 µg/mL)

MIC [13]: 3.32 µM (≈ 5 µg/mL)
MIC [14]: 16 µM (≈ 24 µg/mL)
MIC (Escherichia coli BL21): 4 µM (≈ 6.01 µg/mL)
MIC [15]: 8 µM (≈ 12 µg/mL)
MIC [16]: 1 µM (≈ 1.5 µg/mL)
MIC [17]: 4 µM (≈ 6.01 µg/mL)
MIC [18]: 0.78 µM (≈ 1.17 µg/mL)
MIC [19]: 8 µM (≈ 12 µg/mL)
MIC [20]: 0.665 µM (≈ 0.999 µg/mL)
MIC (Escherichia coli AIG 222): 16 µM (≈ 24 µg/mL)
MIC (Micrococcus luteus A270): 0.78 µM (≈ 1.17 µg/mL)
MIC [21]: 2 µM (≈ 3.01 µg/mL)
MIC [7]: 66.5 µM (≈ 99.9 µg/mL)
MIC [22]: 1 µM (≈ 1.5 µg/mL)
MIC [23]: ≥ 32 µM
MIC [24]: 2 µM (≈ 3.01 µg/mL)
MIC [25]: 6.65 µM (≈ 9.99 µg/mL)
MIC (Candida albicans MDM8): 3.13 µM (≈ 4.7 µg/mL)
MIC [26]: > 128 µM
MIC [27]: ≥ 133 µM
MIC [28]: 8 µM (≈ 12 µg/mL)
MIC [29]: 0.665 µM (≈ 0.999 µg/mL)
MIC [9]: 66.5 µM (≈ 99.9 µg/mL)
MIC [30]: 1 µM (≈ 1.5 µg/mL)
MIC (Bacillus thuringiensis): 16.6 µM (≈ 25 µg/mL)
MIC [31]: 2 µM (≈ 3.01 µg/mL)
MIC [32]: 4 µM (≈ 6.01 µg/mL)
MIC [33]: ≥ 50 µM
MIC [34]: 2 µM (≈ 3.01 µg/mL)
MIC [35]: 3 µM (≈ 4.51 µg/mL)
MIC [36]: 1.56 µM (≈ 2.34 µg/mL)
MIC [37]: ≥ 66.5 µM
MIC (Escherichia coli SBS 363): 1.56 µM (≈ 2.34 µg/mL)
MIC [38]: 12.5 µM (≈ 18.8 µg/mL)
MIC [39]: 0.36 µM (≈ 0.541 µg/mL)
MIC [40]: 3.32 µM (≈ 5 µg/mL)
MIC [41]: 2 µM (≈ 3.01 µg/mL)
MIC (Escherichia coli AIG 221): ≥ 32 µM
MIC (Proteus mirabilis): ≥ 133 µM
MIC [42]: ≥ 66.5 µM
MIC [43]: ≥ 64 µM
Structure (SMILES): CC[C@H](C)[C@H](N)C(=O)N[C@@H](CC(C)C)C(=O)NCC(=O)N[C@@H](CCCCN)C(=O)N[C@H](C(=O)N[C@@H](Cc1c[nH]c2ccccc12)C(=O)N[C@@H](CCC(=O)O)C(=O)NCC(=O)N[C@H](C(=O)N[C@@H](CCCCN)C(=O)N[C@@H](CO)C(=O)N[C@@H](CC(C)C)C(=O)N[C@@H](Cc1ccccc1)C(N)=O)[C@@H](C)CC)[C@@H](C)CC [ILGKIWEGIKSLF]
